According to US20230248735A1, “COMPOSITIONS FOR PREVENTING OR TREATING CHRONIC OBSTRUCTIVE PULMONARY DISEASES (COPD)” (Chong Kun Dang Pharmaceutical Corp., priority 2019, published 2023):

Key:
[1] = tested on: IL-6, IFN-γ, MCP-1, TNF-α; assay: Expression of inflammatory cytokines in lung tissue by real-time PCR, smoking + Poly I:C COPD model; assay type: in vivo, C57BL/6 mouse; details: 30 mg/kg P.O. Q.D., compared with SM+no drug, FIG. 4
Source text: (§1) A C57BL/6 mouse (female, seven weeks old) was placed in a sealed smoking box and exposed to cigarette smoke for a certain period of time to induce COPD disease. Specifically, the mouse was put into the smoking box, after which a cigarette was lit and its filter was connected to a tube under a negative pressure, so that cigarette smoke could be continuously produced. Then, the smoking box was blocked, so that the mouse was forced to inhale the cigarette smoke while breathing in. The mouse was allowed to smoke for a total of four weeks. The mouse was exposed to one, two and four cigarettes once on the first, second and third days of the first week, respectively, and again exposed to four cigarettes twice and three times on the fourth and fifth days, respectively. After that, the mouse was exposed to four cigarettes three times a day for the remaining three weeks. Poly I:C (polyinosinic:polycytidylic acid) was administered into a nasal cavity of the anesthetized mouse twice a week in the third and fourth weeks during induction of smoking, so that a model of smoking + Poly I:C COPD (chronic obstructive pulmonary disease) was induced.
(§2) In order to confirm a drug administration effect of the compound according to the present invention, mice with induced COPD were divided into each group of six mice, and each of the groups was is classified as shown in a following table 1 according to an administered substance [vehicle (Veh), compound 374 (SM+1), or compound 458 (SM+2)], a route of administration [oral administration (P.O.)], and an administration interval [daily (Q.D.)].
In order to confirm an effect of the compound according to the present invention on preventing or treating chronic obstructive pulmonary disease, an expression of inflammatory cytokines in lung tissues was analyzed. Lungs were removed from mice of each group, after which RNA was isolated from the lung tissues. For each RNA, cDNA synthesis was performed by using a reverse transcriptase, after which an expression of inflammatory cytokine markers such as IL-6, IFN-y, MCP-1, and TNF-α was analyzed through real-time PCR, so as to compare a degree of induced inflammation among the groups. In this case, a sequence of a primer used in the experiment is the same as shown in a following table 2. (* P < 0.05, ** P < 0.01, and *** P < 0.001)

[2] = tested on: mouse with induced COPD (smoking + Poly I:C); assay: Analysis of bronchoalveolar lavage fluid (BAL fluid) cell counts, smoking + Poly I:C COPD model; assay type: in vivo, C57BL/6 mouse; details: 30 mg/kg P.O. Q.D.; compared with SM+no drug; FIG. 3
Source text: as §1, §2
In order to confirm an effect of the compound according to the present invention on preventing or treating chronic obstructive pulmonary disease, bronchoalveolar lavage fluid (BAL fluid) was analyzed. The 2 mL of the BAL fluid was separated from the mice of each group and centrifuged. After that, the resulting fluid was suspended in a phosphate buffer solution (PBS), after which the number of total cells was counted, and 2 × 10^5 cells were attached to a slide through a cytospin. After staining with a diff-quick stain kit, the resulting cells were classified into macrophage, neutrophil, etc. based on the properties of the stained cells, so as to count a total of 300 cells, after which a rate of respective cells was calculated with regard to the number of total cells to make a comparison among the groups.

[3] = tested on: mouse with induced COPD (smoking + Poly I:C); assay: Evaluation of immune cell infiltration in H&E-stained lung tissue sections, smoking + Poly I:C COPD model; assay type: in vivo, C57BL/6 mouse; details: 30 mg/kg P.O. Q.D.; compared to smoking + Poly I:C (SM+no drug); FIG. 2
Source text: as §1, with “Poly I:C (polyinosinic:polycytidylic acid) was administered into a nasal cavity of the anesthetized mouse twice a week in the third and fourth weeks during induction of smoking, so that a model of smoking + Poly I:C COPD (chronic obstructive pulmonary disease) was induced.” left out
In order to confirm an effect of the compound according to the present invention on preventing or treating chronic obstructive pulmonary disease, a degree of immune cell infiltration was evaluated. […] According to a reference image of FIG. 1, a degree of cellular infiltration was determined as a score of 0 to 3, and the score was measured by observing slides for each group [FIG. 1: 0-none, 1-mild, 2-moderate, and 3-severe].

[4] = tested on: FN-EDA in A549 cells; assay: FN-EDA protein reduction in TGF-β1-treated cells (Western blot); assay type: cell-based; details: 5 ng/mL TGF-β1, 48 hours, compared to Vhcl (TGF-β1), FIG. 6
Method: (§3) In order to confirm an effect of the compound according to the present invention on preventing or treating chronic obstructive pulmonary disease, an expression of an epithelial marker protein (E-Cad) and a mesenchymal marker protein (N-Cad) was analyzed. A549 cells were cultured in RPMI-1640 medium containing 10% fetal bovine serum (FBS) and 1% penicillin-streptomycin (P/S). The 1.5×10^5 cells were plated in a 6-well plate and incubated overnight. The cells were cultured with 5 ng/mL of recombinant human transforming growth factor beta 1 (TGF-β1) to induce an epithelial-to-mesenchymal transition (EMT). TGF-β1 was diluted with RPMI-1640 (1% FBS, 1% P/S) and incubated with the cells for 48 hours. The 500 µL of culture medium was loaded on a centrifugal filter (Amicon® Ultra-0.5 mL) and centrifuged at 14,000×g for 10 minutes. The enriched culture medium was boiled with 15 µL of 4X sample buffer at 100° C. for five minutes and analyzed by using the Western blot. The cells were lysed by using an RIPA buffer containing a protease inhibitor cocktail and a phosphatase inhibitor cocktail. A lysate was incubated on ice for three minutes and centrifuged at 13,000×g, 4° C. for 20 minutes. A supernatant was quantified by using a BCA protein assay kit and analyzed by the Western blot. The prepared sample was loaded on NuPAGE Novex 4-12% Bis-Tris gel and decomposed at 120 V Proteins were transferred to a nitrocellulose membrane by using an iBlot machine. The membrane was blocked by using EzBlock Chemi according to the manufacturer’s instructions. Antibodies such as E-cadherin (E-Cad), N-cadherin (N-cad), Fibronectin-EDA (FN-EDA), etc., were used. After reaction with a horseradish peroxidase (HRP)-conjugated secondary antibody, immunoreactive proteins were visualized by using Amersham® ECL select® Western blot detection reagent, and detected by ChemiDoc® MP imaging system. The intensity of the band was quantified with ImageJ software and normalized to β-actin.
In order to confirm an effect of the compound according to the present invention on preventing or treating chronic obstructive pulmonary disease, an expression of FN-EDA, a key extracellular matrix (ECM) protein, was analyzed. The analysis was performed by the same method as described in Example 2 above.

[5] = tested on: A549 cells; assay: Inhibitory effect on TGF-β1-induced EMT (E-Cad and N-Cad expression, Western blot); assay type: cell-based; details: 5 ng/mL TGF-β1, 48 hours, compared to Vhcl (TGF-β1), FIG. 5
Method: as §3

Structure (SMILES) | expression of IFN-y in lung tissue [1] | expression of IL-6 in lung tissue [1] | expression of MCP-1 in lung tissue [1] | expression of TNF-α in lung tissue [1] | number of macrophages in BAL fluid [2] | number of neutrophils in BAL fluid [2] | number of total cells in BAL fluid [2] | cellular infiltration score (0 to 3) in lung tissue [3] | expression of key ECM protein FN-EDA [4] | expression of E-Cad (epithelial marker protein) [5] | expression of N-Cad (mesenchymal marker protein) [5]
O=C(NO)c1ccc(CN(C(=O)N2CCOCC2)c2cccc(C(F)(F)F)c2)cc1 [SM+1, N-(4-(hydroxycarbamoyl)benzyl)-N-(3-(trifluoromethyl)phenyl)morpholine-4-carboxamide] | decreased | decreased | decreased | decreased | decreased | decreased | decreased | decrease | – | – | –
COc1cccc(N(Cc2ccc(C(=O)NO)cc2)C(=O)N2CCOCC2)c1 [Compound 484, N-(4-(Hydroxycarbamoyl)Benzyl)-N-(3-Methoxyphenyl)Morpholine-4-Carboxamide] | – | – | – | – | – | – | – | – | remarkable decrease | remarkable increase | remarkable decrease
O=C(NO)c1ccc(CN(C(=O)N2CCOCC2)c2cccc(C(F)(F)F)c2)cc1 [Compound 374, N-(4-(hydroxycarbamoyl)benzyl)-N-(3-(trifluoromethyl)phenyl)morpholine-4-carboxamide] | – | – | – | – | – | – | – | – | remarkable decrease | remarkable increase | remarkable decrease
O=C(NO)c1ccc(CN(C(=O)N2CCOCC2)c2ccc(F)c(Cl)c2)cc1 [SM+2, N-(3-chloro-4-fluorophenyl)-N-(4-(hydroxycarbamoyl)benzyl)morpholine-4-carboxamide] | decreased | decreased | decreased | decreased | decreased | decreased | decreased | decrease | – | – | –
O=C(NO)c1ccc(CN(C(=O)N2CCOCC2)c2ccc(F)cc2F)cc1 [Compound 413, N-(2,4-difluorophenyl)-N-(4-(hydroxycarbamoyl)benzyl)morpholine-4-carboxamide] | – | – | – | – | – | – | – | – | remarkable decrease | remarkable increase | remarkable decrease
O=C(NO)c1ccc(CN(C(=O)N2CCOCC2)c2ccc(F)c(Cl)c2)cc1 [Compound 458, N-(3-chloro-4-fluorophenyl)-N-(4-(hydroxycarbamoyl)benzyl)morpholine-4-carboxamide] | – | – | – | – | – | – | – | – | remarkable decrease | remarkable increase | remarkable decrease
O=C(NO)c1ccc(CN(C(=O)N2CCCOCC2)c2cccc(F)c2)cc1 [Compound 652] | – | – | – | – | – | – | – | – | remarkable decrease | remarkable increase | remarkable decrease
O=C(NO)c1ccc(CN(C(=O)N2CCOCC2)c2cccc(F)c2)cc1 [Compound 530] | – | – | – | – | – | – | – | – | remarkable decrease | remarkable increase | remarkable decrease
